Among the data in US10214519B2, “Phosphatidylinositol 3-kinase inhibitors” (Gilead Sciences, Inc., priority 2016, dated 2019) are IC50 values, retold here.

This experiment deals with PI3Kβ (Homo sapiens (Human), UniProt P42338). Description: PI3K isoform TR-FRET enzymatic assay (PI3Kβ). Particulars: 2× Km ATP, 30 minutes at 25° C. The experiment is classed as biochemical. The gist of the method: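 Heterodimeric recombinant PI3Kβ was incubated with compound 30 minutes at 25° C. Product was detected by TR-FRET competition with 10 nM labeled PIP3 for 35 nM Eu-GRP-1 PH domain after EDTA stop. Data were normalized to 1 μM wortmannin and DMSO, and IC50 was taken from a four-parameter fit.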
Chain of PI3Kβ (P42338 whole entry, the tested form may be a part, canonical isoform): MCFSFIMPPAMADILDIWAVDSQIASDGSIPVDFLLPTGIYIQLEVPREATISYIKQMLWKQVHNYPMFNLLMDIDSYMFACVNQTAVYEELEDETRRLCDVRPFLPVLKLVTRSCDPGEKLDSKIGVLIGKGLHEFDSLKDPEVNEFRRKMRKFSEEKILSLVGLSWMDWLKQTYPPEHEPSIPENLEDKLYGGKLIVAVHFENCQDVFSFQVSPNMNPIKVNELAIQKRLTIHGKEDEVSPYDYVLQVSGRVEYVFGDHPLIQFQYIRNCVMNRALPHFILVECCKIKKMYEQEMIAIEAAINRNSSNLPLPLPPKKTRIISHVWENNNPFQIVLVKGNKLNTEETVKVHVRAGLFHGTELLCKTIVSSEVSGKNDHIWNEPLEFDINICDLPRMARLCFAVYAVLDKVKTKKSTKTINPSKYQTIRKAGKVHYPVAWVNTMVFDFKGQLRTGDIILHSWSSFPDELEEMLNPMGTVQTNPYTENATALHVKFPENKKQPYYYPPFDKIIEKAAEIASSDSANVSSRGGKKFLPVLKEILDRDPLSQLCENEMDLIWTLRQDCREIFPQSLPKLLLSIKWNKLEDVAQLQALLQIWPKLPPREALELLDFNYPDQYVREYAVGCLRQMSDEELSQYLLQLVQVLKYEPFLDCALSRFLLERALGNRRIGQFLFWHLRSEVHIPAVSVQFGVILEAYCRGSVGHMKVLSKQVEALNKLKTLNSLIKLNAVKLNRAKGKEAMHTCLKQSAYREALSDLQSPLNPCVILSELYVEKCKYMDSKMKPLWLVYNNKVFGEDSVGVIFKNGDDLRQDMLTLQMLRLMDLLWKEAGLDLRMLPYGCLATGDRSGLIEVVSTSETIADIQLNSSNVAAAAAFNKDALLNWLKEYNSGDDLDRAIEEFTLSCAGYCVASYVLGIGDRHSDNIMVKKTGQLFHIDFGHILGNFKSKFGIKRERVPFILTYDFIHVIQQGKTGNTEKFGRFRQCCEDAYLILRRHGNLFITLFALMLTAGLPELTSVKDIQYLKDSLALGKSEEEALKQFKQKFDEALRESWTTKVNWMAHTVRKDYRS
Chain of PI3Kβ (P27986 whole entry partner, the tested form may be a part, canonical isoform): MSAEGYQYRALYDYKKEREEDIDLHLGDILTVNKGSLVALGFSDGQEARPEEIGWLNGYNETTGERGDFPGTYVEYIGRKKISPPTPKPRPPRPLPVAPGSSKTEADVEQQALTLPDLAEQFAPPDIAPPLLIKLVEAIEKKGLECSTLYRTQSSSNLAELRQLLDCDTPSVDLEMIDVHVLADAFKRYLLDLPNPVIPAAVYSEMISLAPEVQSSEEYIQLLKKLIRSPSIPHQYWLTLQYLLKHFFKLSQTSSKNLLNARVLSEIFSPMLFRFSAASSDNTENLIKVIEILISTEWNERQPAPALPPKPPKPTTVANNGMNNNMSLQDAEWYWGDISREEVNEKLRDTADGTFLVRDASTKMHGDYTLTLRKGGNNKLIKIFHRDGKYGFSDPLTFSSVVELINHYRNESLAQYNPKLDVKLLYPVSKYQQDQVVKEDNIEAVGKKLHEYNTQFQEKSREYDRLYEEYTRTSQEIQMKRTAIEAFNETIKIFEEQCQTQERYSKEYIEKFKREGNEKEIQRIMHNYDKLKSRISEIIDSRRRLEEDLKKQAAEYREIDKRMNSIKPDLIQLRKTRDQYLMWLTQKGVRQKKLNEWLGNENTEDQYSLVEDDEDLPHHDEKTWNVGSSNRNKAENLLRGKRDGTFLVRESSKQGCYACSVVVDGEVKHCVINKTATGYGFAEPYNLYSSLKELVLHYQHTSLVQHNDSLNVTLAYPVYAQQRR
(In general: TR-FRET usually uses a lanthanide donor and a delayed reading to cut background.)

A word on the IC50: it is the concentration needed to halve the response being measured. In turn, `Cc1nc2c(-c3nnc[nH]3)cc(N3CCOCC3)cc2n1-c1ccnc2ccccc12` [Example 106, 4-[2-methyl-3-quinolin-4-yl-7-(4H-1,2,4-triazol-3-yl)benzimidazol-5-yl]morpholine] registered an IC50 of 17 nM. This counts as double-digit nanomolar. As for `Cc1nc2c(F)cccc2c(-n2c(C)nc3c(-c4nnc[nH]4)cc(N4CCOCC4)cc32)c1C` [Example 61, 4-[3-(8-fluoro-2,3-dimethylquinolin-4-yl)-2-methyl-7-(4H-1,2,4-triazol-3-yl)benzimidazol-5-yl]morpholine], the figure is 27 nM. As for `Cc1cc(-n2c(C)nc3c(-c4nnn[nH]4)cc(N4CCOCC4)cc32)c2ccccc2n1` [Example 160, 4-(2-methyl-1-(2-methylquinolin-4-yl)-4-(1H-tetrazol-5-yl)-1H-benzo[d]imidazol-6-yl)morpholine], the figure is 470 nM; as for `Cc1nc2c(-c3nnc(N)s3)cc(N3CCOCC3)cc2n1-c1ccnc2cc(F)ccc12` [Example 165, 5-(1-(7-fluoroquinolin-4-yl)-2-methyl-6-morpholino-1H-benzo[d]imidazol-4-yl)-1,3,4-thiadiazol-2-amine], 720 nM.

In the case of `Cc1cnc(-c2cc(N3CCOCC3)cc3c2nc(C)n3-c2ccnc3c(Cl)cccc23)s1` [Example 215, 4-[3-(8-chloroquinolin-4-yl)-2-methyl-7-(5-methyl-1,3-thiazol-2-yl)benzimidazol-5-yl]morpholine], the IC50 stood at 630 nM. As to `Cc1nnc(-c2cc(N3CCOCC3)cc3c2nc(C)n3-c2ccnc3c(F)ccc(F)c23)[nH]1` (atropisomer, axis not shown) [Compound 351, (R)-4-(1-(5,8-difluoroquinolin-4-yl)-2-methyl-4-(5-methyl-4H-1,2,4-triazol-3-yl)-1H-benzo[d]imidazol-6-yl)morpholine], half-maximal inhibition (IC50) was put at 460 nM. As for `CCc1nc2c(-c3nnc[nH]3)cc(N3CCOCC3)cc2n1-c1ccnc2c(F)ccc(Cl)c12` [Example 5, 4-(1-(5-chloro-8-fluoroquinolin-4-yl)-2-ethyl-4-(4H-1,2,4-triazol-3-yl)-1H-benzo[d]imidazol-6-yl)morpholine], the figure is 29 nM; as for `Cc1nc2c(-c3nnc[nH]3)cc(N3CCOCC3)cc2n1-c1ccnc2c(C(F)(F)F)cccc12` [Example 108, 4-[2-methyl-7-(4H-1,2,4-triazol-3-yl)-3-[8-(trifluoromethyl)quinolin-4-yl]benzimidazol-5-yl]morpholine], 26 nM. As for `Cc1nc2c(-c3nnc[nH]3)cc(N3CCOCC3)c(F)c2n1-c1ccnc2c(Cl)cccc12` [Example 91, 4-[3-(8-chloroquinolin-4-yl)-4-fluoro-2-methyl-7-(4H-1,2,4-triazol-3-yl)benzimidazol-5-yl]morpholine], the figure is 19 nM; as for `CC(C)Cc1nc2c(-c3ncco3)cc(N3CCOCC3)cc2n1-c1ccnc2c(F)ccc(F)c12` [Example 219, 4-[3-(5,8-difluoroquinolin-4-yl)-2-(2-methylpropyl)-7-(1,3-oxazol-2-yl)benzimidazol-5-yl]morpholine], 8 nM; as for `Cc1nnc(-c2cc(N3CCOCC3)cc3c2nc(C)n3-c2ccnc3c(F)ccc(F)c23)[nH]1` [Example 51, 4-(1-(5,8-difluoroquinolin-4-yl)-2-methyl-4-(5-methyl-4H-1,2,4-triazol-3-yl)-1H-benzo[d]imidazol-6-yl)morpholine], 15 nM. The figure for `CCc1nc2c(-c3cnc(Cl)[nH]3)cc(N3CCOCC3)cc2n1-c1ccnc2c(F)ccc(F)c12` (atropisomer, axis not shown) [Compound 347, 4-[7-(2-chloro-1H-imidazol-5-yl)-3-(5,8-difluoroquinolin-4-yl)-2-ethylbenzimidazol-5-yl]morpholine] is 7 nM; for `Cc1nc2c(-c3nnc[nH]3)cc(N3CCOCC3)cc2n1-c1ccnc2cc(F)cc(F)c12` [Example 131, 4-[3-(5,7-difluoroquinolin-4-yl)-2-methyl-7-(4H-1,2,4-triazol-3-yl)benzimidazol-5-yl]morpholine] it is 46 nM; for `CCCc1nc2c(-c3ncco3)cc(N3CCOCC3)cc2n1-c1ccnc2c(Cl)cc(F)cc12` [Example 222, 4-[3-(8-chloro-6-fluoroquinolin-4-yl)-7-(1,3-oxazol-2-yl)-2-propylbenzimidazol-5-yl]morpholine] it is 12 nM. In turn, `Cc1nnc(-c2cc(N3CCOCC3)cc3c2nc(C)n3-c2ccnc3ccccc23)[nH]1` [Example 19, 4-(2-methyl-4-(5-methyl-4H-1,2,4-triazol-3-yl)-1-(quinolin-4-yl)-1H-benzo[d]imidazol-6-yl)morpholine] displayed an IC50 of 110 nM.

On to `Cc1nc2c(-c3nnc[nH]3)cc(N3CCOCC3)cc2n1-c1ccnc2c(F)c(F)ccc12` (atropisomer, axis not shown) [Compound 352, 4-[3-(7,8-difluoroquinolin-4-yl)-2-methyl-7-(4H-1,2,4-triazol-3-yl)benzimidazol-5-yl]morpholine], for which the IC50 was determined as 7 nM. The figure for `Clc1cccc2c(-n3c(C4CNC4)nc4c(-c5nnc[nH]5)cc(N5CCOCC5)cc43)ccnc12` [Example 132, 4-[2-(azetidin-3-yl)-3-(8-chloroquinolin-4-yl)-7-(4H-1,2,4-triazol-3-yl)benzimidazol-5-yl]morpholine] is 380 nM. Compound `CCc1nc2c(-c3nnc(C)[nH]3)cc(N3CCOCC3)cc2n1-c1c(Cl)cnc2c(Cl)cccc12` [Example 26, 4-[3-(3,8-dichloroquinolin-4-yl)-2-ethyl-7-(5-methyl-4H-1,2,4-triazol-3-yl)benzimidazol-5-yl]morpholine] yielded an IC50 of 22 nM. The figure for `Clc1cccc2c(-n3cnc4c(-c5nnc[nH]5)cc(N5CCOCC5)cc43)ccnc12` [Example 111, 4-[3-(8-chloroquinolin-4-yl)-7-(4H-1,2,4-triazol-3-yl)benzimidazol-5-yl]morpholine] is 3 nM; for `Clc1cccc2c(-n3c(C4COC4)nc4c(-c5nnc[nH]5)cc(N5CCOCC5)cc43)ccnc12` [Example 113, 4-[3-(8-chloroquinolin-4-yl)-2-(oxetan-3-yl)-7-(4H-1,2,4-triazol-3-yl)benzimidazol-5-yl]morpholine] it is 17 nM; for `CCCc1nc2c(-c3cnc(C)[nH]3)cc(N3CCOCC3)cc2n1-c1ccnc2c(Cl)cccc12` [Example 212, 4-[3-(8-chloroquinolin-4-yl)-7-(2-methyl-1H-imidazol-5-yl)-2-propylbenzimidazol-5-yl]morpholine] it is 34 nM.

Compound `CCc1nc2c(-c3nnc[nH]3)cc(N3CCOCC3)cc2n1-c1ccnc2c(F)ccc(F)c12` [Example 125, 4-[3-(5,8-difluoroquinolin-4-yl)-2-ethyl-7-(4H-1,2,4-triazol-3-yl)benzimidazol-5-yl]morpholine] showed an IC50 of 16 nM. As for `Fc1ccc(Cl)c2nccc(-n3c(C4CC4)nc4c(-c5nnc(Cl)[nH]5)cc(N5CCOCC5)cc43)c12` [Example 174, 4-(4-(5-chloro-4H-1,2,4-triazol-3-yl)-1-(8-chloro-5-fluoroquinolin-4-yl)-2-cyclopropyl-1H-benzo[d]imidazol-6-yl)morpholine], the figure is 13 nM; as for `Cc1nnc(-c2cc(N3CCOCC3)cc3c2nc(C)n3-c2ccnc3c(F)ccc(F)c23)[nH]1` (atropisomer, axis not shown) [Compound 350, (S)-4-(1-(5,8-difluoroquinolin-4-yl)-2-methyl-4-(5-methyl-4H-1,2,4-triazol-3-yl)-1H-benzo[d]imidazol-6-yl)morpholine], 10 nM; as for `Clc1cccc2c(-n3c(-c4cn[nH]c4)nc4c(-c5nnc[nH]5)cc(N5CCOCC5)cc43)ccnc12` [Example 120, 4-[3-(8-chloroquinolin-4-yl)-2-(1H-pyrazol-4-yl)-7-(4H-1,2,4-triazol-3-yl)benzimidazol-5-yl]morpholine], 27 nM. As for `Fc1cccc2c(-n3c(CC4CC4)nc4c(-c5cnc(Cl)[nH]5)cc(N5CCOCC5)cc43)ccnc12` [Example 304, 4-[7-(2-chloro-1H-imidazol-5-yl)-2-(cyclopropylmethyl)-3-(8-fluoroquinolin-4-yl)benzimidazol-5-yl]morpholine], the figure is 81 nM. As for `Cc1nc2c(-c3nnc(C4CC4)[nH]3)cc(N3CCOCC3)cc2n1-c1ccnc2c(Cl)cccc12` [Example 135, 4-[3-(8-chloroquinolin-4-yl)-7-(5-cyclopropyl-4H-1,2,4-triazol-3-yl)-2-methylbenzimidazol-5-yl]morpholine], the figure is 43 nM; as for `Cc1nc2c(-c3cscn3)cc(N3CCOCC3)cc2n1-c1ccnc2ccccc12` [Example 265, 4-[2-methyl-3-quinolin-4-yl-7-(1,3-thiazol-4-yl)benzimidazol-5-yl]morpholine], 460 nM. In the case of `Clc1cccc2c(-n3c(-c4ccccn4)nc4c(-c5nnc[nH]5)cc(N5CCOCC5)cc43)ccnc12` [Example 115, 4-[3-(8-chloroquinolin-4-yl)-2-pyridin-2-yl-7-(4H-1,2,4-triazol-3-yl)benzimidazol-5-yl]morpholine], the IC50 worked out at 14 nM. The figure for `c1ccc2c(-n3c(C4CC4)nc4c(-c5nnc[nH]5)cc(N5CCOCC5)cc43)ccnc2c1` [Example 17, 4-(2-cyclopropyl-1-(quinolin-4-yl)-4-(4H-1,2,4-triazol-3-yl)-1H-benzo[d]imidazol-6-yl)morpholine] is 60 nM. `Cc1cc(-n2c(C)nc3c(-c4nnc[nH]4)cc(N4CCOCC4)cc32)c2ccccc2n1` [Example 69, 4-[2-methyl-3-(2-methylquinolin-4-yl)-7-(4H-1,2,4-triazol-3-yl)benzimidazol-5-yl]morpholine]: the IC50 stood at 17 nM. As for `Fc1ccc(F)c2c(-n3c(C4CC4)nc4c(-c5cnc(Cl)[nH]5)cc(N5CCOCC5)cc43)ccnc12` [Example 286, 4-[7-(2-chloro-1H-imidazol-5-yl)-2-cyclopropyl-3-(5,8-difluoroquinolin-4-yl)benzimidazol-5-yl]morpholine], the figure is 14 nM.
